Experimental data published in patent US20240197700A1, “Methods and Compositions for Treating Lysosomal Storage Disorders” (Sanford Health, priority 2021, published 2024).

Test system: Cln2^R207X mice
Experiment: Microglial activation (CD68) in brain of Cln2^R207X mice
Assay type: in vivo, mouse
Protocol: Specific experimental details are included in figure legends. In general, after collection and preparation, MEFs and PNCs were dosed with vehicle or AF38469 (40 nM, 400 nM. or 4 μM) on DIV3 and DIV5. On DIV7, cells were treated with the following dyes: Hoechst 33342 (1:1000 dilution), LysoTrackerT™ Red DND-99 (1:10,000 dilution), fixed, and imaged. Mice were given vehicle or AF38469 (78.125 μg/ml, 3.125 μg/ml, 0.3125 μg/ml or 0.03125 μg/ml equating approximately to 250 μg/mouse/day, 10 μg/mouse/day, 1 μg/mouse/day, and […], respectively, given a mouse's daily water intake of approximately 3.2 ml per day) in drinking water beginning at wean. Body weight was measured bi-weekly, and a force actimeter test was performed on Cln2^R207X mice at 10 weeks of age. Body weight was measured every month for Cln3^Δex7/8 mice. At 11 and 16 weeks of age, respectively, Cln2^R207X and Cln3^Δex7/8 mice along with age matched wild type control mice were CO2 euthanized and intracardially perfused with PBS. Brains were collected and placed on a 1 mm sagittal brain block. Brains were sliced at the midline and 3 mm right of the midline. One hemisphere was fixed in 4% PFA and sectioned at 50 microns on a vibratome. Immunohistochemistry was performed on free-floating sections. For mitochondrial ATP synthase subunit C (SubC), glial fibrillary acidic protein (GFAP), and cluster of differentiation 68 (CD68) immunolabeling, primary antibodies included anti-SubC (Abcam, ab181243; 1:1000), anti-GFAP (Dako, Z0334; 1:5000), anti-CD68 (AbD Serotec, MCA1957; 1:2000), and secondary antibodies included anti-rabbit biotinylated (Vector Labs, BA-1000 1:1000) and anti-rat (Vector Labs, BA-9400 1:1000). Coverslips were mounted on slides using antifade-mounting media and were stored in the dark before imaging. Sections were imaged and analyzed using an Aperio Digital Pathology Slide Scanner (AT2) and associated software. Images were extracted from S1BF of the somatosensory cortex and the VPM/VPL of the thalamus, with multiple images taken of multiple tissues from each animal.
Short-term chronic treatment with AF38469 impacts glial activation in Cln2^R207X mice. Beginning at wean, wild type and Cln2^R207X mice were treated with vehicle (0.2408% DMSO) or AF38469 (0.03125 μg/ml, 0.3125 μg/ml, 3.125 μg/ml, 78.125 μg/ml) continuously through the drinking water continuing until sacrifice at 11 weeks. […] Sections were imaged and analyzed using an Aperio Digital Pathology Slide Scanner (AT2) and associated software. […] Percent area of immunoreactivity were quantified using a threshold analysis in ImageJ™. […]

Cc1cccc(NC(=O)c2ccc(C(F)(F)F)cc2C(=O)O)n1 [AF38469, 2-((6-methylpyridin-2-yl)carbamoyl)-5-(trifluoromethyl)benzoic acid]
microglial activation (CD68) (3.125 μg/ml, 78.125 μg/ml, somatosensory cortex): did not significantly impact | microglial activation (CD68) (78.125 μg/ml, VPM/VPL of the thalamus): significantly increased | CD68 reactivity (higher doses, summary statement): increased or had no impact | microglial activation (CD68) (lower doses 0.03125 μg/ml, 0.3125 μg/ml, somatosensory cortex): significantly and potently decreased
